Assay results published in PubChem BioAssay (NCI).
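Values below derive from 48-hour exposures of cells grown in 96-well plates, with endpoints linearly interpolated between the two concentrations bracketing the appropriate inhibition level. Here, GI50 denotes the concentration required for 50% inhibition of growth. Definition used: TGI = concentration required for complete inhibition of growth.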

Assays:
Test in all cases: inhibition of tumour cell growth, NCI panel, 48 h
[1] = test system: ACHN renal
[2] = test system: NCI-H522 lung
[3] = test system: OVCAR-4 ovarian
[4] = test system: SK-MEL-2 melanoma
[5] = test system: SK-MEL-28 melanoma
[6] = test system: SN12C renal
[7] = test system: A498 renal
[8] = test system: DU-145 prostate
[9] = test system: LOX IMVI melanoma
[10] = test system: SK-OV-3 ovarian

SMILES	TGI [1]	TGI [2]	TGI [3]	TGI [4]	TGI [5]	TGI [6]	GI50 [7]	TGI [7]	GI50 [1]	GI50 [8]	TGI [8]	GI50 [9]	TGI [9]	GI50 [2]	GI50 [3]	GI50 [5]	GI50 [10]	TGI [10]	GI50 [6]	GI50 [4]
CCOC(=O)CCc1c(C)c2c(OC(C)=O)cc(OC(C)=O)cc2oc1=O	> 100 µM	> 100 µM	> 100 µM	82.2 µM	> 100 µM	87 µM														
Cc1n(Cc2ccc3ccccc3c2)cc[n+]1Cc1ccc2ccccc2c1	23.8 µM	1.81 µM	6.36 µM		3.05 µM	10.2 µM	0.47 µM	4.61 µM	10.9 µM	1.87 µM	12.1 µM	0.951 µM	2.2 µM	0.256 µM	0.381 µM	1.02 µM	1.81 µM	7.38 µM	1.22 µM	
Cc1cc(C)n(CCNCCn2nc(C)cc2C)n1	> 100 µM	> 100 µM	> 100 µM	> 1 µM	> 100 µM	> 100 µM		> 100 µM					> 100 µM					> 100 µM		
CN=NN(C)C(=O)NC	> 100 µM	> 100 µM	> 100 µM	> 100 µM	> 100 µM	> 100 µM		> 100 µM					> 100 µM					> 100 µM		
CC(=O)Oc1ccc(Nc2c3ccccc3nc3ccccc23)cc1	2.02 µM		5.93 µM	3.79 µM	3.92 µM	10.3 µM	0.322 µM	1.88 µM	0.382 µM	0.536 µM	3 µM	0.736 µM	2.03 µM		1.74 µM	1.58 µM	1.47 µM	5.91 µM	1.42 µM	1.8 µM
COC(=O)[C@@H](NC(=O)[C@@H](OC)[C@@H]1Cc2cc3cc(OC4CC(OC5CC(O)C(O)C(C)O5)C(O)C(C)O4)c(C)c(O)c3c(O)c2C(=O)[C@H]1OC1CC(OC2CC(OC3CC(C)(O)C(O)C(C)O3)C(O)C(C)O2)C(O)C(C)O1)C(C)C (some centres undefined)	3.7 µM	2.02 µM	14 µM	7.94 µM	6.04 µM	> 32.5 µM	0.0869 µM	0.333 µM	0.0956 µM	0.158 µM	> 32.5 µM			0.112 µM	0.166 µM	0.0971 µM	0.271 µM	> 32.5 µM	0.145 µM	0.194 µM
CCN(CC)CC(C)(C)C(=O)/C=C/c1ccc(Cl)c(Cl)c1	3.09 µM	3.2 µM	3.2 µM	4.63 µM	3.08 µM		1.63 µM	3.55 µM	1.61 µM	1.41 µM	2.71 µM	0.774 µM	2.03 µM	1.71 µM	1.63 µM	1.57 µM				2.5 µM
CCN(CC)CCOc1ccc(/C(=C(\C)c2ccc(F)c(OC)c2)c2ccc(Cl)cc2)cc1	5.31 µM	5.79 µM	4.45 µM	5.51 µM	4.71 µM	4.64 µM			2.7 µM	2.51 µM	5.28 µM	2.46 µM	4.66 µM	2.73 µM	2.1 µM	2.44 µM	2.97 µM	5.73 µM	2.38 µM	2.8 µM
Cc1[nH][nH]c(=O)c1C=Nc1ccc(-c2nc3ccccc3[nH]2)cc1	> 100 µM	78.1 µM	76.5 µM	48 µM		96.5 µM			30.1 µM	34.8 µM	> 100 µM	16.8 µM	30.5 µM	31.1 µM	24.4 µM		41.9 µM	> 100 µM	36.7 µM	23.3 µM
COC(=O)/C=C/C1C(C(=O)OC)C2(C(=O)OC)CCC1(C(=O)OC)N2 (centres undefined)	> 100 µM	> 100 µM	> 100 µM	> 100 µM		> 100 µM		> 100 µM					> 100 µM					> 100 µM		
CCCCCCCCCc1cc(=O)c2c(O)cccc2o1	> 100 µM	> 100 µM	> 100 µM	64.7 µM	> 100 µM	> 100 µM							72.3 µM					> 100 µM		
O=S(O)CCCCSSCc1ccccc1CSSCCCCS(=O)O	74 µM	18.7 µM	18.3 µM	> 100 µM	31.9 µM	> 100 µM		> 100 µM					28.7 µM					> 100 µM		
O=C(CCCN1CC=C(n2c(=O)[nH]c3ccccc32)CC1)c1ccc(F)cc1	> 100 µM	> 100 µM	> 100 µM	70.9 µM	> 100 µM	> 100 µM			45.6 µM	68.1 µM	> 100 µM	26 µM	> 100 µM	65.1 µM	30 µM	52.6 µM	> 100 µM	> 100 µM	96.2 µM	19.5 µM
CC(=O)Oc1ccccc1C(=O)N=C1[Se]CCN1C(=O)c1ccccc1OC(C)=O	2.86 µM	2.7 µM	7.24 µM	3.91 µM	3.25 µM		1.02 µM	2.4 µM	1.4 µM	0.61 µM	2.18 µM			1.22 µM	1.46 µM	0.492 µM	1.05 µM	2.82 µM		1.42 µM
N#CC(C#N)=c1[nH]c2cccc3c2-c2c(cccc2c3=C(C#N)C#N)[nH]1		> 100 µM	> 100 µM			> 100 µM		> 100 µM					> 100 µM					> 100 µM		
C#C[C@]1(O)CC[C@H]2[C@@H]3CC=C4c5sc(Nc6ccccc6)nc5CC[C@]4(C)[C@H]3CC[C@@]21C		6.26 µM	65.6 µM	5.75 µM	2.75 µM	11.1 µM	1.34 µM	3.66 µM		1.87 µM	4.71 µM			2.27 µM	3.14 µM	0.692 µM	2.37 µM	10.6 µM	2.86 µM	1.61 µM
